Here are results for eight compounds from ChEMBL document CHEMBL1201862, “PubChem BioAssay data set” (2004).

Among the test systems are A549; OVCAR-4; SR; UACC-257; SW-620; DU-145; OVCAR-3; T47D; RPMI-8226; HOP-92; IGROV-1; EKVX; PC-3; CAKI-1; HT-29; TK-10; MDA-MB-231; SF-295; CCRF-CEM.
Assay in all cases: NCI anticancer screen, dose series, 48 h

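48-hour exposure; five concentrations; linearly interpolated endpoints. GI50 marks 50% less growth.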 The source made the active and inactive calls. Rule as the data show it: active = GI50 up to about 1.1 µM and inactive = higher.

For `c1cc2c(cc1C(N1CCNCC1)N1CCNCC1)OCO2`, the GI50 in the test with A549 is > 100 µM (inactive); in the test on OVCAR-4, > 100 µM (inactive); in the test on SR, 9.64 µM (inactive); in the test on UACC-257, > 100 µM (inactive); in the test with SW-620 it was > 100 µM (inactive); in the test with DU-145 it was > 100 µM (inactive). The GI50 is > 100 µM (inactive) in the test with OVCAR-3; > 100 µM (inactive) in the test with T47D; 40.9 µM (inactive) in the test with RPMI-8226; > 100 µM (inactive) in the test with HOP-92; > 100 µM (inactive) in the test with IGROV-1; > 100 µM (inactive) in the test on EKVX. For the same compound, the GI50 in the test on PC-3, in the test on CAKI-1, in the test with HT-29, in the test on TK-10, in the test with MDA-MB-231 and with SF-295 was > 100 µM (inactive) each time.

Take `Cc1ccc(S(=O)(=O)N2CCC[C@@H]2C(=O)O[C@@H]2CCC3CC=CC32)cc1` (some centres not stated): the GI50 with A549 is 34.5 µM (inactive); with OVCAR-4 it was 47 µM (inactive); in the test with SR it was 11.6 µM (inactive); with UACC-257, 22.2 µM (inactive); in the test on SW-620, 40.3 µM (inactive); in the test on DU-145 it was 45.6 µM (inactive). Moreover, the GI50 was 12.1 µM (inactive) in the test with OVCAR-3; 24.8 µM (inactive) in the test with CCRF-CEM; 20.9 µM (inactive) in the test on T47D; 18.7 µM (inactive) in the test with RPMI-8226; 15.3 µM (inactive) with HOP-92; 39.9 µM (inactive) in the test on IGROV-1. Besides, the GI50 in the test on EKVX was 41.6 µM (inactive); in the test on PC-3, 21.4 µM (inactive); with HT-29, 24 µM (inactive); in the test with TK-10, 42.5 µM (inactive); with MDA-MB-231 it was 45.9 µM (inactive); in the test with SF-295, 36.8 µM (inactive).

Regarding `CCCCCC(=O)CCCCCCCC(O)CC(=O)OCC` (configuration not stated), the GI50 in the test on A549, in the test on SR, in the test with UACC-257, in the test with SW-620, with DU-145 and in the test with OVCAR-3 was > 100 µM (inactive) throughout. The GI50 with CCRF-CEM is > 100 µM (inactive); in the test with T47D, > 100 µM (inactive); with RPMI-8226, > 100 µM (inactive); in the test on HOP-92 it was 49.1 µM (inactive); with IGROV-1 it was > 100 µM (inactive); in the test with PC-3, > 100 µM (inactive). Moreover, the GI50 in the test with CAKI-1 was > 100 µM (inactive); with HT-29 it was > 100 µM (inactive); with TK-10, > 100 µM (inactive); in the test with MDA-MB-231, > 100 µM (inactive); in the test on SF-295, > 10 µM (inactive).

Turning to `Cc1cc(N2CCOCC2)nc2ccc(Cc3ccc4nc(N5CCOCC5)cc(C)c4c3)cc12`, the GI50 in the test on A549 was 41.7 µM (inactive); in the test with OVCAR-4, > 100 µM (inactive); in the test with SR it was 28.3 µM (inactive); in the test with UACC-257, 25.6 µM (inactive); in the test with SW-620 it was 35.9 µM (inactive); in the test on DU-145 it was > 100 µM (inactive). Also, the GI50 was 33.3 µM (inactive) in the test with OVCAR-3; 14.6 µM (inactive) in the test with T47D; 20.2 µM (inactive) in the test on RPMI-8226; > 100 µM (inactive) in the test with HOP-92; > 100 µM (inactive) with IGROV-1; 20.7 µM (inactive) in the test with EKVX. Moreover, the GI50 with PC-3 was 56.4 µM (inactive); in the test with CAKI-1, > 100 µM (inactive); in the test with HT-29, 18.7 µM (inactive); in the test on TK-10, 29.4 µM (inactive); in the test with MDA-MB-231, > 100 µM (inactive); in the test with SF-295, 78.7 µM (inactive).

In the case of `CC(C)CCCC(C)[C@H]1CCC2[C@@H]3CCC4Cc5nc6c(nc5C[C@]4(C)C3CC[C@@]21C)CC1CC[C@@H]2C(CC[C@@]3(C)C2CC[C@@H]3O)[C@@]1(C)C6` (some centres not stated), the GI50 with A549, in the test with OVCAR-4, with SR, with UACC-257, with SW-620 and with DU-145 was > 100 µM (inactive) each time. Also, the GI50 in the test on OVCAR-3, in the test with CCRF-CEM, with T47D, with RPMI-8226, in the test on HOP-92 and with IGROV-1 was > 100 µM (inactive) in each case. The GI50 in the test with EKVX, in the test on PC-3, in the test on HT-29, with TK-10, in the test with MDA-MB-231 and with SF-295 was > 100 µM (inactive) throughout.

In the case of `Cc1cc(C)n(C(C)(C(=O)Cc2ccccc2)n2nc(C)cc2C)n1`, the GI50 in the test with A549, with OVCAR-4, in the test on SR, in the test with SW-620, in the test on DU-145 and in the test on OVCAR-3 was > 100 µM (inactive) in each case. Further, the GI50 with T47D, in the test with RPMI-8226, in the test with HOP-92, with IGROV-1, in the test with EKVX and with PC-3 was > 100 µM (inactive) throughout. Also, the GI50 in the test with CAKI-1, in the test with HT-29, with TK-10, with MDA-MB-231 and in the test with SF-295 was > 100 µM (inactive) throughout.

Take `CCOC(=O)Cc1nc2sc(S(N)(=O)=O)nn2c1Br`: the GI50 with A549 was 33 µM (inactive); with SR, 40.6 µM (inactive); with UACC-257 it was 29.9 µM (inactive); in the test on SW-620, 23.6 µM (inactive); with DU-145, 33.9 µM (inactive); in the test with OVCAR-3, 36.6 µM (inactive). Further, the GI50 in the test on CCRF-CEM is < 0.01 µM (active); in the test on T47D it was 27.3 µM (inactive); in the test with RPMI-8226 it was 17.3 µM (inactive); with HOP-92, 22.8 µM (inactive); with IGROV-1, 28.4 µM (inactive); in the test with EKVX, 26.6 µM (inactive). In addition, the GI50 was 22 µM (inactive) in the test on PC-3; 17.2 µM (inactive) in the test on CAKI-1; 19.4 µM (inactive) in the test with HT-29; 35.1 µM (inactive) in the test on TK-10; 17.6 µM (inactive) with MDA-MB-231; > 100 µM (inactive) in the test with SF-295.

On to `CN(C)C(=O)C1CCN(Cc2c[nH]c3ccccc23)CC1`, for which the GI50 is > 100 µM (inactive) in the test with A549; > 100 µM (inactive) in the test with OVCAR-4; > 100 µM (inactive) in the test with SR; > 100 µM (inactive) with UACC-257; 17 µM (inactive) in the test with SW-620; > 100 µM (inactive) with DU-145. Also, the GI50 in the test on OVCAR-3, in the test with T47D, with RPMI-8226, in the test on HOP-92, in the test with IGROV-1 and with EKVX was > 100 µM (inactive) in each case. Also, the GI50 with PC-3, with CAKI-1, with HT-29, in the test on TK-10, in the test on MDA-MB-231 and in the test on SF-295 was > 100 µM (inactive) each time.
